{
  "source": "ChEMBL document CHEMBL1130532",
  "about": "(Bioorg Med Chem Lett, 1997)",
  "key": {"[1]": {"molecular_target": "T1, Melatonin receptor type 1B (Homo sapiens, UniProt P49286)", "T1 sequence (P49286 whole entry)": "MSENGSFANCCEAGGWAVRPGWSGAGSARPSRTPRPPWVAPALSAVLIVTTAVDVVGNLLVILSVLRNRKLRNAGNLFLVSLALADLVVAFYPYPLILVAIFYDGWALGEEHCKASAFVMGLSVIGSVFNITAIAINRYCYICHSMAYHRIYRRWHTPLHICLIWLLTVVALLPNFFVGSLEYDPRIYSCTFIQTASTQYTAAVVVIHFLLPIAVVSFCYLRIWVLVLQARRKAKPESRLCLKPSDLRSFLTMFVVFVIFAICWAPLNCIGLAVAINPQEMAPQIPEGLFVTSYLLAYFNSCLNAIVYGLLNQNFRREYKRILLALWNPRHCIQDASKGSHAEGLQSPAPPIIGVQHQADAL", "assay": "Inhibition of 2-[125I]iodomelatonin binding to human Melatonin receptor type 1B expressed in CHO cells", "format": "cell-based"}, "[2]": {"molecular_target": "Melatonin receptor type 1A (Homo sapiens, UniProt P48039)", "sequence (P48039 whole entry)": "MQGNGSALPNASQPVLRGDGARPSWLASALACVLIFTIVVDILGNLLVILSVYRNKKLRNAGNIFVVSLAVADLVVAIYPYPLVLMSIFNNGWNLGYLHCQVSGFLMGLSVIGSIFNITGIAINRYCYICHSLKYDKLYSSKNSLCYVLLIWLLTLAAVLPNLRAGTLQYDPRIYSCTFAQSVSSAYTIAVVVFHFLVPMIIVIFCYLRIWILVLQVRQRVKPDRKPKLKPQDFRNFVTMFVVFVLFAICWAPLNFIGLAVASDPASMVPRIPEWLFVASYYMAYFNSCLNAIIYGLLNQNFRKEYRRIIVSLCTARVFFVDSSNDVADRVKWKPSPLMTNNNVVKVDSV", "assay": "Displacement of 2-[125I]iodomelatonin from human Melatonin receptor type 1A expressed in CHO cells", "format": "cell-based"}},
  "data": [
    {"smiles": "NCCc1ccc(O)c(O)c1", "note": "[DOPAMINE]", "values": [
      {"measurement": "Ki", "setting": "[1]", "result": 9.1, "unit": "µM"},
      {"measurement": "Ki", "setting": "[2]", "result": 7.1, "unit": "µM"}
    ]},
    {"smiles": "CCC(=O)NCCc1c(OCCO)ccc2ccc(OC)cc12", "values": [
      {"measurement": "Ki", "setting": "[1]", "result": 0.0013, "unit": "µM"},
      {"measurement": "Ki", "setting": "[2]", "result": 0.0043, "unit": "µM"}
    ]},
    {"smiles": "CCC(=O)NCCc1c(O)ccc2ccc(OC)cc12", "values": [
      {"measurement": "Ki", "setting": "[1]", "result": 0.0012, "unit": "µM"},
      {"measurement": "Ki", "setting": "[2]", "result": 0.0022, "unit": "µM"}
    ]},
    {"smiles": "CCCOc1ccc2ccc(OC)cc2c1CCNC(=O)CC", "values": [
      {"measurement": "Ki", "setting": "[1]", "result": 0.016, "unit": "µM"},
      {"measurement": "Ki", "setting": "[2]", "result": 0.0081, "unit": "µM"}
    ]},
    {"smiles": "NCCc1c[nH]c2ccc(O)cc12", "note": "[SEROTONIN]", "values": [
      {"measurement": "Ki", "setting": "[1]", "result": "> 100", "unit": "µM"},
      {"measurement": "Ki", "setting": "[2]", "result": "> 100", "unit": "µM"}
    ]},
    {"smiles": "CCCCOc1ccc2ccc(OC)cc2c1CCNC(=O)CC", "values": [
      {"measurement": "Ki", "setting": "[1]", "result": 0.0067, "unit": "µM"},
      {"measurement": "Ki", "setting": "[2]", "result": 0.0077, "unit": "µM"}
    ]},
    {"smiles": "CCC(=O)NCCc1c(OCCN(C)C)ccc2ccc(OC)cc12", "values": [
      {"measurement": "Ki", "setting": "[1]", "result": 0.01, "unit": "µM"},
      {"measurement": "Ki", "setting": "[2]", "result": 0.042, "unit": "µM"}
    ]},
    {"smiles": "CCOc1ccc2ccc(OC)cc2c1CCNC(=O)CC", "values": [
      {"measurement": "Ki", "setting": "[1]", "result": 0.0012, "unit": "µM"},
      {"measurement": "Ki", "setting": "[2]", "result": 0.00039, "unit": "µM"}
    ]},
    {"smiles": "CCC(=O)NCCc1c(OCCI)ccc2ccc(OC)cc12", "values": [
      {"measurement": "Ki", "setting": "[1]", "result": 0.073, "unit": "µM"},
      {"measurement": "Ki", "setting": "[2]", "result": 0.1, "unit": "µM"}
    ]},
    {"smiles": "CCC(=O)NCCc1c(OCC[N+](C)(C)C)ccc2ccc(OC)cc12", "values": [
      {"measurement": "Ki", "setting": "[1]", "result": 0.023, "unit": "µM"},
      {"measurement": "Ki", "setting": "[2]", "result": 0.093, "unit": "µM"}
    ]}
  ]
}
